Assay results as given in patent publication US7691825B2, “Adenosine A2B receptor agonists” (King Pharmaceuticals Research and Development, Inc., priority 2006, dated 2010).
“And” between values parts separate entries of the source, which are not always exact repeats. Identical values can stand only once. Like-named read-outs stand apart in the source and are kept apart here.

Key:
[1] = biological target: T1, hA2A receptors expressed in CHO cells (Homo sapiens, UniProt P29274); assay: [3H]CGS21680 binding hA2A CHO cells; conditions: [3H]-CGS 21680, hA2A CHO cell membranes, 180 min at 25° C.; mean ± s.e. mean
T1 construct: expressed in transfected cells; host or cells: CHO cells (stably transfected, per Klotz et al. 1998); membrane preparation
T1 sequence (P29274 whole entry): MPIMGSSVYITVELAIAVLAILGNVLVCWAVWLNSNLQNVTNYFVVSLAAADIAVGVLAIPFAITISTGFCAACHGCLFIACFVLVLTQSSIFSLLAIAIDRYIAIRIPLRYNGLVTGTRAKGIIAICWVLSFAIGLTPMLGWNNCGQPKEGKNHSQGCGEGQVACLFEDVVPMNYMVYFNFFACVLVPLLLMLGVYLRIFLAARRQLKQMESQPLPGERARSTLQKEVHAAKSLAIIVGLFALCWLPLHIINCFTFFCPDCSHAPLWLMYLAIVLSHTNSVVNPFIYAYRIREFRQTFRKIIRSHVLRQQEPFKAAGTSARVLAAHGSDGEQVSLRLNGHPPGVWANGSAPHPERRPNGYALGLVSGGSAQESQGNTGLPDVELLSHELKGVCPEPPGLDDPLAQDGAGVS
Description: (§2) The cells are grown adherently and maintained in Dulbecco's Modified Eagles Medium with nutrient mixture F12 (DMEM/F12) without nucleosides, containing 10% fetal calf serum, penicillin (100 U/mL), streptomycin (100 μg/mL), L-glutamine (2 mM) and Geneticin (G418, 0.2 mg/mL) at 37° C. in 5% CO2/95% air. […] For membrane preparation the culture medium is removed and the cells are washed with PBS and scraped off T75 flasks in ice-cold hypotonic buffer (5 mM Tris HCl, 2 mM EDTA, pH 7.4). The cell suspension is homogenized and centrifuged for 30 min at 100,000×g. The membrane pellet is re-suspended in 50 mM Tris HCl buffer pH 7.4 and incubated with 2 UI/mL of adenosine deaminase for 30 min at 37° C.
(§3) Binding of 1 nM [^3H]—CHA to hA1CHO cells (50 μg of protein/assay) is performed using 50 mM Tris HCl buffer pH 7.4 and at least 6-8 different concentrations of agonists studied for an incubation time of 150 min at 25° C. […] Non-specific binding is determined in the presence of 10 μM of CHA and is about 20% of the total binding. […] Filter bound radioactivity is measured by scintillation spectrometry after addition of 5 mL of Aquassure.
(§4) All experimental data are expressed as the mean±standard error of the mean (s.e. mean) of three or four independent experiments performed in duplicate.

[2] = biological target: T2, hA2B receptors expressed in CHO cells (Homo sapiens, UniProt P29275); assay: cAMP assay hA2B CHO cells; format: cell-based; conditions: for EC50: stimulation of cAMP levels, hA2B CHO cells, mean ± s.e. mean; for Selectivity hA1/hA2B: ratio hA1 Ki / hA2B EC50; for Selectivity hA2A/hA2B: ratio hA2A Ki / hA2B EC50; for Selectivity hA3/hA2B: ratio hA3 IC50 / hA2B EC50
T2 construct: expressed in transfected cells; host or cells: CHO cells
T2 sequence (P29275 1-332): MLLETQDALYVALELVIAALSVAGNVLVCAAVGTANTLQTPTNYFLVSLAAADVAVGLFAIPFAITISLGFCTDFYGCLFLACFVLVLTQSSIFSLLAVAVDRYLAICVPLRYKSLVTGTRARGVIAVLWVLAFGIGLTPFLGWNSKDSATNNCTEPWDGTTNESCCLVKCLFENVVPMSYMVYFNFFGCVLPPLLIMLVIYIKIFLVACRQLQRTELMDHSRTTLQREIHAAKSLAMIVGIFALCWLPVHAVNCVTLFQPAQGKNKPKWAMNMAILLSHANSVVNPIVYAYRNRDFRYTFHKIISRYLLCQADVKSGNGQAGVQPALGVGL
Description: The effects of the tested compounds may be evaluated in functional assays measuring the stimulatory capability of the ligands to increase cAMP levels in hA2B receptors expressed in CHO cells. This may done as described by Pastorin et al. in “Pyrazolo[4,3-e]-1,2,4-triazolo[1,5-c]pyrimidine derivatives as adenosine receptor antagonists.
(§1) For cell preparation CHO cells transfected with human A2B or A3 receptors are washed with phosphate-buffered saline and diluted trypsin, and centrifuged for 10 min at 200 g. […] After the preincubation time at 37° C., the examined ligands (1 nM-10 μM) are added to the mixture and incubated for a further 5 min. The reaction is terminated by the addition of cold 6% trichloroacetic acid (TCA). The TCA suspension is centrifuged at 2000 g for 10 min at 4° C. and the supernatant is extracted four times with water saturated diethyl ether. […] Samples of cyclic AMP standard (0-10 pmoles) are added to each test tube containing the incubation buffer (trizma base 0.1 mM, aminophylline 8.0 mM, 2-mercaptoethanol 6.0 mM, pH 7.4) and [^3H]cyclic AMP in total volume of 0.5 mL. The binding protein previously incubated at 4° C. for 150 min, and after the addition of charcoal is centrifuged at 2000 g for 10 min. The clear supernatant is counted in a Beckman scintillation counter.

[3] = biological target: T3, human A3 receptors in CHO cells (Homo sapiens, UniProt P0DMS8); assay: cAMP assay hA3 CHO cells; format: cell-based; conditions: cyclic AMP assay, mean ± s.e. mean
T3 construct: expressed in transfected cells; host or cells: CHO cells
T3 sequence (P0DMS8 1-318): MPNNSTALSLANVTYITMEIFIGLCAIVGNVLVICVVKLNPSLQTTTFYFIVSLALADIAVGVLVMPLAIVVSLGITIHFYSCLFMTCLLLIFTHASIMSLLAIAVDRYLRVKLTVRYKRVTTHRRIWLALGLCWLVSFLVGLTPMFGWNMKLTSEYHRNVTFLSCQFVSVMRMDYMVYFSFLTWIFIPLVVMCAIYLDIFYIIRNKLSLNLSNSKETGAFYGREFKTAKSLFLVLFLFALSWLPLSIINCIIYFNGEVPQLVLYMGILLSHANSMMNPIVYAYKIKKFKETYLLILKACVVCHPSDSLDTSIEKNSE
Description: as §1

[4] = biological target: T4, hA1 receptors expressed in CHO cells (Homo sapiens, UniProt P30542); assay: [3H]CHA binding hA1 CHO cells
T4 sequence (P30542 1-326): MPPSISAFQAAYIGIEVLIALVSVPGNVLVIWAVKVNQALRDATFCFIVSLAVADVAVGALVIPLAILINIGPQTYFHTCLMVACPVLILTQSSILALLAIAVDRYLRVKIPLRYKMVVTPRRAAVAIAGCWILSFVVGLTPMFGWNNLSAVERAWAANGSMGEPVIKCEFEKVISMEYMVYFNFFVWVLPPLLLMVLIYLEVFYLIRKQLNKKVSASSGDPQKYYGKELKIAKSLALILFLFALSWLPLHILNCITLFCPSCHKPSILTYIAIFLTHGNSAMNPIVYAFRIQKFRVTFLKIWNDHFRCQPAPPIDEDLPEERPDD
Description: as §2, §3, §4

[5] = read-out: [3H]CHA binding hA1 CHO cells Ki, 1 nM [3H]-CHA, hA1 CHO cell membranes, 150 min at 25° C., mean ± s.e. mean

Compound | Ki [1] [nM] | EC50 [2] [nM] | IC50 [3] [nM] | melting point | Ki [4] [nM] | Selectivity hA1/hA2B [2] | Selectivity hA2A/hA2B [2] | Selectivity hA3/hA2B [2] | Ki [4, 5] [nM]
CCNC(=O)[C@H]1O[C@@H](n2cnc3c(NNC(=O)c4cc(-c5ccccc5)on4)nc(Cl)nc32)[C@H](O)[C@@H]1O [Compound 26b, (2S, 3S, 4R, 5R)-5-{2-Chloro-6-[N′-(5-phenyl-isoxazole-3-carbonyl)-hydrazino]-9H-purin-9-yl}-3,4-dihydroxy-tetrahydrofuran-2-carboxylic acid ethylamide] | > 1000 | > 1000 | > 1000 | 169 to 170 °C | > 1000 | – | – | – | –
CCNC(=O)[C@H]1O[C@@H](n2cnc3c(NNC(=O)c4nc([N+](=O)[O-])cn4C)ncnc32)[C@H](O)[C@@H]1O [Compound 15b, (2S, 3S, 4R, 5R)-3,4-Dihydroxy-5-{6-[N′-(1-methyl-4-nitro-1H-imidazole-2-carbonyl)-hydrazino]-9H-purin-9-yl}-tetrahydrofuran-2-carboxylic acid ethylamide] | > 1000 | > 1000 | > 1000 | 169 to 170 °C | > 1000 | – | – | – | –
CCNC(=O)[C@H]1O[C@@H](n2cnc3c(NNC(=O)c4cccnc4)ncnc32)[C@H](O)[C@@H]1O [Compound 11b, (2S, 3S, 4R, 5R)-3,4-Dihydroxy-5-{6-[N′-(pyridine-3-carbonyl)-hydrazino]-9H-purin-9-yl}-tetrahydrofuran-2-carboxylic acid ethylamide] | > 1000 | > 1000 | > 1000 | 170 °C | > 1000 | – | – | – | –
CCNC(=O)[C@H]1O[C@@H](n2cnc3c(NNC(=O)c4ccsc4)nc(Cl)nc32)[C@H](O)[C@@H]1O [Compound 21b, (2S, 3S, 4R, 5R)-5-{2-Chloro-6-[N′-(thiophene-3-carbonyl)-hydrazino]-9H-purin-9-yl}-3,4-dihydroxy-tetrahydrofuran-2-carboxylic acid ethylamide] | > 1000 | 450 ± 29 | > 1000 | 249 to 250 °C | – | 2.07 | >2.22 | >2.22 | 933 ± 76
CCNC(=O)[C@H]1O[C@@H](n2cnc3c(NNC(=O)c4ccc(C)o4)ncnc32)[C@H](O)[C@@H]1O [Compound 14b, (2S, 3S, 4R, 5R)-3,4-Dihydroxy-5-{6-[N′-(5-methyl-furan-2-carbonyl)-hydrazino]-9H-purin-9-yl}-tetrahydrofuran-2-carboxylic acid ethylamide] | 1300 ± 50 | 227 ± 18 | > 1000 | 154 to 155 °C | – | 3.08 | 5.73 | >4.40 | 700 ± 25
CCNC(=O)[C@H]1O[C@@H](n2cnc3c(NNC(=O)c4sccc4C)nc(Cl)nc32)[C@H](O)[C@@H]1O [Compound 23b] | > 1000 | 340 ± 35 | > 1000 | 160 to 161 °C | > 1000 | >2.94 | >2.94 | >2.94 | –
CCNC(=O)[C@H]1O[C@@H](n2cnc3c(NNC(=O)c4ccccc4)ncnc32)[C@H](O)[C@@H]1O [Compound 9b, (2S, 3S, 4R, 5R)-5-[6-(N′-Benzoyl-hydrazino)-9H-purin-9-yl]-3,4-dihydroxy-tetrahydrofuran-2 carboxylic acid ethylamide] | > 1000 | > 1000 | > 1000 | 174 to 175 °C and 173 to 174 °C | > 1000 | – | – | – | –
CCNC(=O)[C@H]1O[C@@H](n2cnc3c(NNC(=O)c4ccco4)nc(Cl)nc32)[C@H](O)[C@@H]1O [Compound 18b, (2S, 3S, 4R, 5R)-5-{2-Chloro-6-[N′-(furan-2-carbonyl)-hydrazino]-9H-purin-9-yl}-3,4-dihydroxy-tetrahydrofuran-2-carboxylic acid ethylamide] | > 1000 | 210 ± 13 | > 1000 | 269 to 270 °C | > 1000 | >4.76 | >4.76 | >4.76 | –
CCNC(=O)[C@H]1O[C@@H](n2cnc3c(NNC(=O)c4cccs4)nc(Cl)nc32)[C@H](O)[C@@H]1O [Compound 22b, (2S, 3S, 4R, 5R)-5-{2-Chloro-6-[N′-(thiophene-2-carbonyl)-hydrazino]-9H-purin-9-yl}3,4-dihydroxy-tetrahydrofuran-2-carboxylic acid ethylamide] | > 1000 | 200 ± 20 | > 1000 | 189 to 190 °C | – | 3.68 | >5.00 | >5.00 | 737 ± 76
CCNC(=O)[C@H]1O[C@@H](n2cnc3c(NNC(=O)c4cc(C)on4)nc(Cl)nc32)[C@H](O)[C@@H]1O [Compound 25b, (2S, 3S, 4R, 5R)-5-{2-Chloro-6-[N′-(5-methyl-isoxazole-3-carbonyl)-hydrazino]-9H-purin-9-yl}-3,4-dihydroxy-tetrahydrofuran-2-carboxylic acid ethylamide] | > 1000 | > 1000 | > 1000 | 182 to 183 °C | > 1000 | – | – | – | –
CCNC(=O)[C@H]1O[C@@H](n2cnc3c(NNC(=O)c4ccc(C)s4)ncnc32)[C@H](O)[C@@H]1O [Compound 16b, (2S, 3S, 4R, 5R)-3,4-Dihydroxy-5-{6-[N′-(5-methyl-thiophene-2-carbonyl)-hydrazino]-9H-purin-9-yl}-tetrahydrofuran-2-carboxylic acid ethylamide] | > 1000 | 273 ± 12 | > 1000 | 153 to 154 °C | > 1000 | >3.66 | >3.66 | >3.66 | –
CCNC(=O)[C@H]1O[C@@H](n2cnc3c(NNC(=O)c4ccco4)ncnc32)[C@H](O)[C@@H]1O [Compound 12b, (2S, 3S, 4R, 5R)-5-{6-[N′-(Furan-2-carbonyl)-hydrazino]-9H-purin-9-yl}-3,4-dihydroxy-tetrahydrofuran-2-carboxylic acid ethylamide] | > 1000 | 82 ± 10 | > 1000 | 233 to 234 °C | > 1000 | >12.19 | >12.19 | >12.19 | –
CCNC(=O)[C@H]1O[C@@H](n2cnc3c(NNC(=O)c4ccc(Br)o4)ncnc32)[C@H](O)[C@@H]1O [Compound 13b, (2S, 3S, 4R, 5R)-5-{6-[N′-(5-Bromo-furan-2-carbonyl)-hydrazino]-9H-purin-9-yl}-3,4-dihydroxy-tetrahydrofuran-2-carboxylic acid ethylamide] | – | – | – | 171 °C | – | – | – | – | –
